# Experimental data as given in ChEMBL document CHEMBL4052765, “Synthesis and antibacterial evaluation of novel 11-O-carbamoyl clarithromycin ketolides” (2017).
# Key:
# Type in all cases: functional
# Streptococcus pneumoniae [1] = assay: Potency index, ratio of azithromycin MIC to compound MIC against erythromycin-resistant Streptococcus pneumoniae A22072
# Streptococcus pneumoniae [2] = assay: Antibacterial activity against erythromycin-resistant Streptococcus pneumoniae AB11 harboring harboring mef and erm gene after 24 h by NCCLS broth microdilution method; conditions: AB11, 24 h
# Streptococcus pyogenes [3] = assay: Antibacterial activity against erythromycin-resistant Streptococcus pyogenes R1 after 24 h by NCCLS broth microdilution method; conditions: R1, 24 h
# Streptococcus pneumoniae [4] = assay: Antibacterial activity against erythromycin-resistant Streptococcus pneumoniae A22072 harboring mef gene after 24 h by NCCLS broth microdilution method; conditions: A22072, 24 h
# Streptococcus pneumoniae [5] = assay: Antibacterial activity against erythromycin-resistant Streptococcus pneumoniae B1 harboring erm gene after 24 h by NCCLS broth microdilution method; conditions: B1, 24 h
# Staphylococcus aureus [6] = assay: Antibacterial activity against […] Staphylococcus aureus ATCC 29213 after 24 h by NCCLS broth microdilution method; conditions: ATCC 29213, 24 h
# Bacillus subtilis = assay: Antibacterial activity against penicillin-susceptible Bacillus subtilis ATCC 9372 after 24 h by NCCLS broth microdilution method; conditions: ATCC 9372, 24 h
# Pseudomonas aeruginosa = assay: Antibacterial activity against penicillin-susceptible Pseudomonas aeruginosa ATCC 27853 after 24 h by NCCLS broth microdilution method; conditions: ATCC 27853, 24 h
# Streptococcus pyogenes [7] = assay: Antibacterial activity against erythromycin-susceptible Streptococcus pyogenes after 24 h by NCCLS broth microdilution method
# Escherichia coli = assay: Antibacterial activity against penicillin-susceptible Escherichia coli ATCC 25922 after 24 h by NCCLS broth microdilution method; conditions: ATCC 25922, 24 h
# Staphylococcus aureus [8] = assay: Antibacterial activity against erythromycin-susceptible Staphylococcus aureus ATCC 25923 after 24 h by NCCLS broth microdilution method; conditions: ATCC 25923, 24 h
# Streptococcus pneumoniae [9] = assay: Potency index, ratio of clarithromycin MIC to compound MIC against erythromycin-resistant Streptococcus pneumoniae A22072
# Staphylococcus aureus [10] = assay: Potency index, ratio of clarithromycin MIC to compound MIC against […] Staphylococcus aureus ATCC 29213
SMILES,Ratio (Streptococcus pneumoniae [1]),MIC (Streptococcus pneumoniae [2]) [µg/mL],MIC (Streptococcus pyogenes [3]) [µg/mL],MIC (Streptococcus pneumoniae [4]) [µg/mL],MIC (Streptococcus pneumoniae [5]) [µg/mL],MIC (Staphylococcus aureus [6]) [µg/mL],MIC (Bacillus subtilis) [µg/mL],MIC (Pseudomonas aeruginosa) [µg/mL],MIC (Streptococcus pyogenes [7]) [µg/mL],MIC (Escherichia coli) [µg/mL],MIC (Staphylococcus aureus [8]) [µg/mL],Ratio (Streptococcus pneumoniae [9]),Ratio (Staphylococcus aureus [10])
CC[C@H]1OC(=O)[C@H](C)C(=O)[C@H](C)[C@@H](O[C@@H]2O[C@H](C)C[C@H](N(C)C)[C@H]2O)[C@](C)(OC)C[C@@H](C)C(=O)[C@H](C)[C@@H](OC(=O)NCCNC(=O)c2ccc(Cl)cc2)[C@]1(C)O,4,64,> 128,0.5,128,128,0.25,128,1,> 128,16,–,–
CC[C@H]1OC(=O)[C@H](C)C(=O)[C@H](C)[C@@H](O[C@@H]2O[C@H](C)C[C@H](N(C)C)[C@H]2O)[C@](C)(OC)C[C@@H](C)C(=O)[C@H](C)[C@@H](OC(=O)NCCNC(=O)c2ccc([N+](=O)[O-])cc2N)[C@]1(C)O,4,64,> 128,0.5,128,128,1,> 128,0.5,128,8,8,–
CC[C@H]1OC(=O)[C@H](C)C(=O)[C@H](C)[C@@H](O[C@@H]2O[C@H](C)C[C@H](N(C)C)[C@H]2O)[C@](C)(OC)C[C@@H](C)C(=O)[C@H](C)[C@@H](OC(=O)NCCNC(=O)/C=C/c2cccc3ccccc23)[C@]1(C)O,–,128,128,2,128,32,2,> 128,1,128,16,–,–
CC[C@H]1OC(=O)[C@H](C)C(=O)[C@H](C)[C@@H](O[C@@H]2O[C@H](C)C[C@H](N(C)C)[C@H]2O)[C@](C)(OC)C[C@@H](C)C(=O)[C@H](C)[C@@H](OC(=O)NCCNC(=O)/C=C/c2ccc(Cl)cc2)[C@]1(C)O,4,128,> 128,0.5,128,64,4,> 128,2,> 128,16,8,–
CC[C@H]1OC(=O)[C@H](C)C(=O)[C@H](C)[C@@H](O[C@@H]2O[C@H](C)C[C@H](N(C)C)[C@H]2O)[C@](C)(OC)C[C@@H](C)C(=O)[C@H](C)[C@@H](OC(=O)NCCNC(=O)/C=C/c2ccco2)[C@]1(C)O,–,128,> 128,1,128,16,8,128,4,128,64,–,4
CC[C@H]1OC(=O)[C@H](C)C(=O)[C@H](C)[C@@H](O[C@@H]2O[C@H](C)C[C@H](N(C)C)[C@H]2O)[C@](C)(OC)C[C@@H](C)C(=O)[C@H](C)[C@@H](OC(=O)NCCNC(=O)c2cc([N+](=O)[O-])cc([N+](=O)[O-])c2)[C@]1(C)O,4,64,128,0.5,128,128,1,128,0.125,128,8,8,–
CC[C@H]1OC(=O)[C@H](C)[C@@H](O[C@H]2C[C@@](C)(OC)[C@@H](O)[C@H](C)O2)[C@H](C)[C@@H](O[C@@H]2O[C@H](C)C[C@H](N(C)C)[C@H]2O)[C@](C)(O)C[C@@H](C)CN(C)[C@H](C)[C@@H](O)[C@]1(C)O [AZITHROMYCIN],–,> 128,> 128,2,> 128,8,0.25,16,0.03,16,0.25,–,–
CC[C@H]1OC(=O)[C@H](C)[C@@H](O[C@H]2C[C@@](C)(OC)[C@@H](O)[C@H](C)O2)[C@H](C)[C@@H](O[C@@H]2O[C@H](C)C[C@H](N(C)C)[C@H]2O)[C@](C)(OC)C[C@@H](C)C(=O)[C@H](C)[C@@H](O)[C@]1(C)O [CLARITHROMYCIN],–,128,> 128,4,> 128,64,0.25,64,0.03,64,0.25,–,–
